Data set [1] can be described thus: Rat CSF distribution after oral administration of APRE (UPLC-MS/MS). Conditions: for MRM response in CSF: rat CSF after oral APRE; for AUC(0-inf) / AUC(0-t) / Cmax / Tmax / half-life / total amount percentage of CSF/plasma: rat; for AUC(0-inf) / AUC(0-t) / Cmax / Tmax / half-life: CSF, po, 4 g/kg; for total amount percentage of CSF/plasma: (0.48 × AUC0→∞/CSF)/(16 × AUC0→∞/plasma), oral APRE.
Protocol: Aliquots of 50 μL CSF samples with IS (10 μL, 200 ng/mL) were extracted with 600 μL ethyl acetate.
The UPLC-MS/MS system consisted of a Shimadzu Nexera UPLC instrument connected to a Shimadzu LCMS-8050 mass spectrometer via the electrospray ionization interface (Shimadzu Corp., Kyoto, Japan). Samples were separated on an ACQUITY UPLC BEH RP18 column (2.1 × 100 mm, 1.7 µm, Waters, Milford, MA, USA) equipped with a BEH RP18 guard column (2.1 × 5 mm, 1.7 µm, Waters, Milford, MA, USA). The column temperature was 30 °C, and the flow rate was 0.4 mL/min. The sample injection volume was 5 µL. The mobile phases consisted of 0.1% (v/v) formic acid in water (A) and ACN (B). […] The precursor ion, product ion, Q1, Q3, CE and DT were optimized.
(§1) The time schedule included 9 time-points, and six rats were sampled at each time-point. The rats were fasted overnight with free access to water before the experiment. APRE was suspended with the normal saline and orally administered to the rats at a single dose of 4 g/kg. The animals had free access to water during the experiment.
Rats were anesthetized by an intraperitoneal dose of chloral hydrate (350 mg/kg) at 0.25, 0.5, 1, 1.5, 2, 4, 6, 8, 12 h after oral administration of APRE. A dorsal midline cutaneous incision was made, and the muscle at the craniocervical junction was bluntly dissected to expose the atlanto-occipital membrane. The cisterna magna was punctured with a thin syringe needle, and a microinjector connected with the needle was used to collect the interior CSF carefully [27]. Clear CSF was transferred to a clean microtube and frozen at −80 °C until further use. Blood contaminated samples were excluded.
(§2) Results were expressed as the mean ± standard deviation (SD). The UPLC-MS/MS data were processed with Labsolutions 5.65 software (Shimadzu Corp., Kyoto, Japan). The pharmacokinetic parameters were calculated with the Drug and Statistics 2.0 software (Mathematical Pharmacology Professional Committee of China, Shanghai, China).

Data set [2] can be described thus: Rat brain distribution after oral administration of APRE (UPLC-MS/MS). Conditions: for log BBexpt.: log (AUC0→∞/brain/AUC0→∞/plasma), oral APRE; for log BBexpt. / Tmax / half-life / Kp: rat; for AUC0→t / AUC0→∞ / CLz/F / Vz/F: rat brain, oral APRE 4 g/kg, mean ± SD, n = 6; for Tmax / half-life: brain; for Tmax / half-life / Kp: po, 4 g/kg; for Kp: brain/plasma.
Protocol: Each weighed brain sample was homogenized with a 2-fold volume of normal saline solution. IS solution (10 μL, 200 ng/mL) was added to 300 μL of the homogenate. The mixture was then extracted with a 3-fold volume of ethyl acetate. The mixture was vortexed for 1 min and centrifuged at 16,000× g for 10 min. The supernatant was transferred out and dried under a gentle constant flow of nitrogen. The residue was then dissolved with 100 μL of MeOH and ultrasonically (power 250 W, frequency 40 KHz) extracted for 10 min. After centrifugation at 16,000× g for 10 min, the supernatant was drawn out into a clean vial, and 5 μL of each were injected into the UPLC–MS/MS system for analysis.
The UPLC-MS/MS system consisted of a Shimadzu Nexera UPLC instrument connected to a Shimadzu LCMS-8050 mass spectrometer via the electrospray ionization interface (Shimadzu Corp., Kyoto, Japan). Samples were separated on an ACQUITY UPLC BEH RP18 column (2.1 × 100 mm, 1.7 µm, Waters, Milford, MA, USA) equipped with a BEH RP18 guard column (2.1 × 5 mm, 1.7 µm, Waters, Milford, MA, USA). The column temperature was 30 °C, and the flow rate was 0.4 mL/min. The sample injection volume was 5 µL. The mobile phases consisted of 0.1% (v/v) formic acid in water (A) and ACN (B). The LC gradient elution program and mass working parameters were the same as our previous report [6]. […] The precursor ion, product ion, Q1, Q3, CE and DT were optimized.
as §1
Cardiac perfusion was carried out quickly with physiological saline after CSF collection at each time-point. The rat brains were separated, weighed and then stored at −80 °C until treatment.
as §2
Data set [3] in a line: Stability of QC samples in aCSF (freeze-thaw, room temperature). It counts as physicochemical. Conditions: percentage remaining, n = 5; for Stability room temperature: room temperature 24 h; for Stability Freeze-thaw: three freeze-thaw cycles.
Data set [4] can be described thus: Stability of QC samples in rat brain homogenate (freeze-thaw, room temperature). It counts as physicochemical. To be noted: percentage remaining, n = 5; for Stability room temperature: room temperature 24 h; for Stability Freeze-thaw: three freeze-thaw cycles.

Each structure is given as a SMILES string.

In the case of `O=c1ccc2ccc(O)cc2o1` [umbelliferone], in data set [1], the “MRM response in CSF” value is listed as “under LLOQ”. The “MRM response in brain” value in data set [2] (rat brain after oral APRE) is given as “under LLOQ”.
For the compound `COc1ccc2ccc(=O)oc2c1CC(O)C(C)(C)O` (stereo not shown) [Compound 11, Meranzin hydrate], in data set [1], the AUC(0-inf) came out at 754 ± 142 ng·h/mL, the AUC(0-t) came out at 676 ± 108 ng·h/mL, the Cmax stood at 129 ± 20.2 ng/mL and the Tmax was found to be 2.17 ± 0.98 h. The half-life in data set [1] is 3.37 ± 0.75 h. Moreover, in data set [3] (aCSF QC 5 ng/mL), the Stability room temperature is recorded as 92.02±3.40% and the “Stability Freeze-thaw” value was 96.16±10.07%. Also, in data set [3] (aCSF QC 120 ng/mL), the Stability room temperature came to 99.09±5.56% and the “Stability Freeze-thaw” value stood at 95.58±7.24%. In addition, in data set [3] (aCSF QC 240 ng/mL), the Stability room temperature is reported as 103.10±9.99% and the “Stability Freeze-thaw” value was found to be 94.40±4.03%. In data set [2], the “log BBexpt.” value is −0.10, the AUC0→t is 1752.16 ± 249.82 µg·h/kg, the “AUC0→∞” value turned out to be 1948.10 ± 305.84 µg·h/kg and the CLz/F is 0.86 ± 0.13 g/h/kg. In data set [2], the Vz/F is given as 4.46 ± 1.60 g/kg, the Tmax came out at 1.29 ± 1.5 h and the half-life was 3.64 ± 1.4 h. In data set [4] (rat brain QC 5 ng/mL), the Stability room temperature was 97.21±8.86% and the “Stability Freeze-thaw” value is recorded as 94.71±4.63%. In addition, in data set [4] (rat brain QC 200 ng/mL), the Stability room temperature is given as 96.58±7.80% and the “Stability Freeze-thaw” value worked out at 97.28±10.13%. For the same compound, in data set [4] (rat brain QC 400 ng/mL), the Stability room temperature came to 95.82±9.16% and the “Stability Freeze-thaw” value is 104.50±7.46%.
With `COc1ccc2ccc(=O)oc2c1CC=C(C)C` [Compound 10, osthole], in data set [1], the AUC(0-inf) is 30.5 ± 1.53 ng·h/mL, the AUC(0-t) is 27.7 ± 2.88 ng·h/mL, the peak level (Cmax) was 4.31 ± 1.49 ng/mL and the Tmax was determined as 2.83 ± 2.84 h. The half-life in data set [1] was 3.19 ± 1.16 h. Further, in data set [3] (aCSF QC 5 ng/mL), the Stability room temperature was 95.92±3.20% and the “Stability Freeze-thaw” value was found to be 94.43±7.49%. In addition, in data set [3] (aCSF QC 40 ng/mL), the Stability room temperature stood at 94.93±5.05% and the “Stability Freeze-thaw” value was determined as 95.90±8.12%. Besides, in data set [3] (aCSF QC 80 ng/mL), the Stability room temperature turned out to be 93.50±6.38% and the “Stability Freeze-thaw” value is 97.71±2.91%. For the same compound, in data set [2], the AUC0→t stood at 1327.91 ± 341.99 µg·h/kg, the “AUC0→∞” value was 2105.63 ± 1100.15 µg·h/kg, the CLz/F was determined as 13.96 ± 7.04 g/h/kg and the Vz/F is given as 60.18 ± 25.11 g/kg. For the same compound, in data set [2], the Tmax stood at 0.35 ± 0.14 h, the half-life was 5.36 ± 2.15 h and the Kp amounted to 0.15. Further, in data set [4] (rat brain QC 5 ng/mL), the Stability room temperature stood at 99.12±3.06% and the “Stability Freeze-thaw” value stood at 95.53±4.36%. Besides, in data set [4] (rat brain QC 80 ng/mL), the Stability room temperature was 101.64±8.78% and the “Stability Freeze-thaw” value is listed as 98.42±10.02%. In data set [4] (rat brain QC 160 ng/mL), the Stability room temperature stood at 96.43±4.95% and the “Stability Freeze-thaw” value is on record as 98.13±6.85%.
Consider `CC(C)(O)[C@H](O)COc1c2ccoc2cc2oc(=O)ccc12` [Compound 8, oxypeucedanin hydrate], for which, in data set [1], the AUC(0-inf) came out at 73.6 ± 11.8 ng·h/mL, the AUC(0-t) was determined as 54 ± 8.2 ng·h/mL, the Cmax was 7.47 ± 1.69 ng/mL and the Tmax is 2 ± 1.14 h. In addition, in data set [1], the half-life was 6.32 ± 1.95 h. For the same compound, in data set [3] (aCSF QC 5 ng/mL), the Stability room temperature stood at 96.96±3.22% and the “Stability Freeze-thaw” value stood at 97.57±5.59%. In data set [3] (aCSF QC 40 ng/mL), the Stability room temperature was 95.09±3.26% and the “Stability Freeze-thaw” value worked out at 94.73±7.34%. Also, in data set [3] (aCSF QC 80 ng/mL), the Stability room temperature amounted to 103.37±5.33% and the “Stability Freeze-thaw” value came to 95.96±5.37%. In data set [2], the “log BBexpt.” value is given as −0.16, the AUC0→t was found to be 313.39 ± 59.25 µg·h/kg, the “AUC0→∞” value was 397.36 ± 66.83 µg·h/kg and the CLz/F is 2.04 ± 0.34 g/h/kg. For the same compound, in data set [2], the Vz/F turned out to be 14.45 ± 3.95 g/kg, the Tmax was determined as 0.96 ± 0.86 h and the half-life was 4.91 ± 0.91 h. Also, in data set [4] (rat brain QC 5 ng/mL), the Stability room temperature came to 97.72±9.35% and the “Stability Freeze-thaw” value is listed as 96.57±11.87%. Besides, in data set [4] (rat brain QC 80 ng/mL), the Stability room temperature is listed as 96.02±6.30% and the “Stability Freeze-thaw” value came out at 94.94±10.27%. Further, in data set [4] (rat brain QC 160 ng/mL), the Stability room temperature came out at 97.99±6.44% and the “Stability Freeze-thaw” value is reported as 102.42±7.10%.
Turning to `C/C=C(/C)C(=O)OC(C)(C)[C@@H]1Cc2c(ccc3ccc(=O)oc23)O1` [Compound 7, columbianadin], the “MRM response in CSF” value in data set [1] is “under LLOQ”. The “time after oral administration within which detected in brain” value in data set [2] (rat brain after oral APRE, MRM response under LLOQ at following time points) is listed as at most 4 h. The Stability room temperature in data set [4] (rat brain QC 10 ng/mL) is on record as 96.82±4.84%; in data set [4] (rat brain QC 80 ng/mL) it was 92.73±3.53%; in data set [4] (rat brain QC 160 ng/mL), 91.16±4.37%. Besides, the “Stability Freeze-thaw” value in data set [4] (rat brain QC 10 ng/mL) came out at 101.64±6.63%; in data set [4] (rat brain QC 80 ng/mL), 94.79±6.28%; in data set [4] (rat brain QC 160 ng/mL) it was 90.93±4.84%.
As for `O=c1ccc2cc3ccoc3cc2o1` [Compound 1, psoralen], in data set [1], the “total amount percentage of CSF/plasma” value is on record as “greater than 1%”, the AUC(0-inf) was 51.3 ± 17.5 ng·h/mL, the AUC(0-t) amounted to 20.4 ± 6.16 ng·h/mL and the concentration peaked (Cmax) at 4.49 ± 1.05 ng/mL. Moreover, in data set [1], the Tmax was determined as 4.67 ± 1.63 h and the half-life was 3.52 ± 2.04 h. Moreover, in data set [3] (aCSF QC 10 ng/mL), the Stability room temperature came to 97.19±5.40% and the “Stability Freeze-thaw” value turned out to be 96.14±6.21%. Also, in data set [3] (aCSF QC 40 ng/mL), the Stability room temperature is 98.36±3.57% and the “Stability Freeze-thaw” value was 96.98±5.79%. In data set [3] (aCSF QC 80 ng/mL), the Stability room temperature came out at 94.12±6.94% and the “Stability Freeze-thaw” value amounted to 86.27±13.45%. Moreover, in data set [2], the AUC0→t was 351.63 ± 65.06 µg·h/kg, the “AUC0→∞” value came out at 371.95 ± 69.76 µg·h/kg, the CLz/F turned out to be 2.88 ± 0.58 g/h/kg and the Vz/F amounted to 8.86 ± 3.08 g/kg. Also, in data set [2], the Tmax was 0.33 ± 0.13 h, the half-life is 2.15 ± 0.67 h and the Kp was 0.56. For the same compound, in data set [4] (rat brain QC 10 ng/mL), the Stability room temperature was found to be 101.36±7.46% and the “Stability Freeze-thaw” value was 97.11±8.58%. For the same compound, in data set [4] (rat brain QC 80 ng/mL), the Stability room temperature was found to be 99.53±12.87% and the “Stability Freeze-thaw” value is 96.22±7.77%. Also, in data set [4] (rat brain QC 160 ng/mL), the Stability room temperature amounted to 96.99±3.28% and the “Stability Freeze-thaw” value was 96.30±8.22%.
As to `O=c1ccc2c(O)c3ccoc3cc2o1` [bergaptol], in data set [1], the “MRM response in CSF” value was “under LLOQ”. In addition, the “MRM response in brain” value in data set [2] (rat brain after oral APRE) is listed as “under LLOQ”.
For the compound `CC(C)(O)[C@H]1Cc2cc3ccc(=O)oc3cc2O1` [Compound 12, nodakenetin], in data set [1], the “total amount percentage of CSF/plasma” value is listed as “greater than 1%”, the total exposure AUC(0-inf) came out at 625 ± 249 ng·h/mL, the AUC(0-t) is 331 ± 43.2 ng·h/mL and the concentration peaked (Cmax) at 43.5 ± 5.98 ng/mL. In data set [1], the Tmax is 6.33 ± 0.82 h and the half-life was 6.69 ± 2.25 h. Also, in data set [3] (aCSF QC 5 ng/mL), the Stability room temperature was found to be 102.33±8.37% and the “Stability Freeze-thaw” value is 101.36±5.89%. Also, in data set [3] (aCSF QC 120 ng/mL), the Stability room temperature is given as 101.14±5.08% and the “Stability Freeze-thaw” value came out at 92.78±5.37%. Besides, in data set [3] (aCSF QC 240 ng/mL), the Stability room temperature was determined as 99.91±7.69% and the “Stability Freeze-thaw” value was found to be 95.63±4.23%. Also, in data set [2], the AUC0→t turned out to be 933.83 ± 66.51 µg·h/kg, the “AUC0→∞” value is 1560.07 ± 730.91 µg·h/kg, the CLz/F was found to be 0.779 ± 0.26 g/h/kg and the Vz/F was 6.30 ± 2.22 g/kg. In data set [2], the Tmax worked out at 5.33 ± 1.03 h, the half-life was 6.27 ± 3.19 h and the Kp amounted to 0.01. Further, in data set [4] (rat brain QC 5 ng/mL), the Stability room temperature is recorded as 94.83±5.41% and the “Stability Freeze-thaw” value was 98.18±2.46%. Besides, in data set [4] (rat brain QC 200 ng/mL), the Stability room temperature is listed as 97.69±5.38% and the “Stability Freeze-thaw” value is on record as 101.08±9.25%. Moreover, the Stability room temperature in data set [4] (rat brain QC 400 ng/mL) was found to be 95.56±2.64%.

As usually defined, the AUC(0-inf) is the area under the concentration-time curve extrapolated to infinity. A high value points to high exposure. As usually defined, the AUC(0-t) is the area under the concentration-time curve up to a stated or last time point. Read a low AUC(0-t) as low exposure. Usually Cmax stands for the highest concentration seen after dosing. One may read the Tmax as the time from dosing to the highest level. A word on the half-life: it is the time needed for the level to fall by half in the phase considered. The low end stands for fast loss, the high end for slow loss. For orientation: Kp means the ratio of the level in a tissue or fluid to that in plasma or blood.

Values taken from paper PMC6017000, “Distribution Assessments of Coumarins from Angelicae Pubescentis Radix in Rat Cerebrospinal Fluid and Brain by Liquid Chromatography Tandem Mass Spectrometry Analysis” (Molecules : A Journal of Synthetic Chemistry and Natural …, 2018).
